{"source": "patent US20120107323A1", "about": "“KINASE PROTEIN BINDING INHIBITORS” (University of Florida, priority 2009, published 2012)", "key": {"[1]": {"tested_on": "Panc-1 pancreatic cancer cells", "test": "Cell viability (MTT), Panc-1", "assay_type": "cell-based", "method": "Cell viability (MTT) and CFSE Proliferation assay: Cells were plated in 96-well plates and let adhere overnight. After cell treatment, cell viability was measured by 3-(4,5-dimethylthiazol-2-yl)-2,5-diphenyl tetrazolium bromide (MTT) assay (CellTiter 96® Aqueous, Promega, Madison, Wis.).\nCell viability and detachment assays: After cells were treated with siRNA transfection, cell viability was measured by 3-(4,5-dimethylthiazol2-yl)-2,5-diphenyl tetrazolium bromide (MTT) assay (CellTiter 96® AQueous, Promega, Madison, Wis.). Briefly, 20 μl of the tetrazolium compound was added to each well. The cells were then incubated at 37° C. for 1 h. The plate was read at 490 nm with a plate reader to determine the viability. In detachment assays, detached and attached cells were harvested separately and counted in a hemocytometer. The percentage of detachment was calculated by dividing the number of detached cells by the total number of cells. Apoptosis assays: After treatment, attached and detached cells were collected, counted and prepared for terminal uridine deoxynucleotidyl transferase (TUNEL) assay by utilizing an APO-BRDU kit (BD Pharmingen, San Diego, Calif.) according to the manufacturer's instructions. Stained cells were analyzed with a fluorescence-activated cell sorting-Calibur flow cytometer (BD Biosciences). Calculation of the percentage of apoptotic cells in the sample was completed with CellQuest software (BD Biosciences). Apoptotic cells were also analyzed by Hoechst staining. Hoechst 33342 ([…]) was added to the fixed cells and the specimens were mounted on glass coverslips. The slides were viewed under the Zeiss microscope for apoptotic nuclei. The percent of apoptotic cells was calculated as the ratio of apoptotic cells to total number of cells.\nIn addition, the effect of INT2-31 on cell viability of esophageal, pancreatic and breast cancer cell lines was analyzed and the IC50 value for each cell line was determined, as shown in Table 1. […] Similar to melanoma results, INT2-31 inhibits viability more in cancer cells compared to normal cells. Sensitivity of the cells to INT2-31 varied and directly correlated to the FAK and IGF-1R expression level of the cells."}, "[2]": {"tested_on": "FAK and IGF-1R pathway effectors", "test": "Western blot of signaling in melanoma cell lines", "assay_type": "cell-based, human", "text": "Computational Docking The crystal structures of the N-terminal domain of FAK (PDB code 2AL6) (22) and the kinase domain of IGF-1R(PDB 1P40A) (23) were utilized for in silico molecular modeling of their interaction as previously described. The three-dimensional coordinates of compound NSC344553 (INT2-31), obtained from the database of the National Cancer Institute, Developmental Therapeutics Program (NCI/DTP), were docked onto the predicted interface of the amino-terminus of FAK (amino acids 127-243) with the intracytoplasmic portion of IGF-1R (21). All docking calculations were performed with the University of California-San Francisco DOCK 5.1 program, using a clique-matching algorithm to orient small molecule structures with sets of spheres that describe the target sites on FAK (37). 100 orientations were created for NSC344553 in the target site and were scored using the computer program grid-based scoring function. Docking calculations were performed on the University of Florida High Performance Computing supercomputing cluster (http:hpc.ufl.edu). The intermolecular energies for all configurations of NSC 344553 in binding to FAK-NT2 were calculated as the sum of electrostatic and van der Waals energies. These energy terms were evaluated as correlation functions, which were computed efficiently with Fast Fourier Transforms. Production of GST-fusion proteins: The FAK-GST plasmid constructs (pGEX vector) were kindly provided by Dr. Elena Kurenova (Roswell Park Cancer Institute, Buffalo, N.Y.). His-tagged IGF-1R protein was purchased from Blue Sky Biotechnology (Worchester, Mass.). The GST-fusion proteins (FAK fragments) were expressed in BL21 (DE3) Escherichia coli bacteria by incubation with 0.2 mM isopropyl b-D-galactopyranoside (IPTG) for 6 h at 37° C. The bacteria were lysed by sonication, and the fusion proteins were purified with glutathione-Sepharose 4B beads (GE Healthcare, NJ). Pull-down assay: For the pull-down binding assay, His-tagged IGF-1R fragment protein (200 ng) were precleared with GST immobilized on glutathione-Sepharose 4B beads. The precleared His-tagged protein was incubated with 0.2 μg of GST-FAK fusion protein immobilized on the glutathione-Sepharose 4B beads for 1 h at 4° C. and then washed 3× with PBS. Equal amounts of GST-fusion proteins were used for each binding assay. Bound proteins were boiled in 6× Laemmli buffer and analyzed by SDS-PAGE and Western blotting. Immunoprecipitation and western blotting: Cells were washed twice with ice cold 1×PBS and lysed in buffer containing 20 mM Tris, pH 7.4, 150 mM NaCl, 1% NP-40, 5 mM EDTA acid, protease inhibitors (Complete™ Protease Inhibitor, Roche, N.J.) and phosphatase inhibitors (Calbiochem, Calif.). For immunoprecipitation, 100-200 μg of total cell extract was used for each sample. The extracts were incubated with 1 μg of antibody overnight at 4° C. Next, 25 μl of protein A/G-agarose beads were added and the samples were incubated for 2 h at 4° C. The precipitates were washed 4× with lysis buffer and samples containing 30 μg of protein were resolved by SDS-PAGE. The intensity of the bands in the western blots was measured with scion image analysis software program. Short hairpin RNA Transfection of cells: Control shRNA (mock) and FAK shRNAs was obtained from Open Biosystems. The sequences of short hairpin RNAs against human FAK were: (5′-[…] TCCAATCGTTTTG-3′; 5′-[…]-3′) and control shRNA (mock) (5′-[…]-3′). For the transfection of cells (2×10^5 cells/well) were seeded into 6-well plates in 2 ml medium one day prior to transfection. According to the protocols of the manufacturer, cells were transfected using Lipofectamine 2000 reagent (Invitrogen, CA).\nWestern blotting: boiled samples containing 30 μg of protein were resolved by sodium dodecyl sulfate-polyacrylamide gel electrophoresis followed by transferring to polyvinylidene difluoride membrane (Bio-Rad, Hercules, Calif.). […]"}, "melanoma tumor": {"tested_on": "melanoma tumor", "test": "Melanoma tumor in nude mice, 5 days of treatment", "assay_type": "in vivo", "settings": "15 mg/kg intraperitoneal for 5 days, p<0.05"}}}
{"smiles": "CSc1ncnc2c1ccn2C1O[C@H](COP(=O)(O)O)[C@@H](O)[C@H]1O", "note": "(stereo partly drawn) [INT2-31, 4-(Methylthio)-7-(5-O-phosphono-D-ribofuranosyl)-{7H-Pyrrolo[2,3-d]pyrimidine}]", "values": [{"measurement": "IC50", "setting": "[1]; Homo sapiens, Panc-1, 72 hours, read-out: IC50 of INT2-31, cell viability", "result": 6.7, "unit": "µM"}, {"measurement": "cell viability (in words)", "setting": "[1]; Panc-1, 72 hours", "result": "inhibits the cell viability"}, {"measurement": "effect of combination with 5-FU on cell viability", "setting": "[1]; pancreatic cancer cells, 1 μM INT2-31", "result": "synergistic effects"}, {"measurement": "effect of combination with gemcitabine on cell viability", "setting": "[1]; pancreatic cancer cells, data not shown", "result": "only additive"}, {"measurement": "dose necessary to significantly decrease p-Akt", "setting": "[2]; A375 cells", "result": "1 to 5", "unit": "µM"}, {"measurement": "time course of Akt phosphorylation", "setting": "[2]; C8161, 5 μM, 24, 48 and 72 hours", "result": "some dephosphorylation after 24 hours of treatment with a sustained effect at 72 hours"}, {"measurement": "dose necessary to significantly decrease p-Akt", "setting": "[2]; SK-MEL-28 cells", "result": "5 to 10", "unit": "µM"}, {"measurement": "p-ERK", "setting": "[2]; all cell lines, higher doses", "result": "slight decrease"}, {"measurement": "constitutive and IGF-1 induced signaling to AKT", "setting": "[2]; three melanoma cell lines", "result": "consistent inhibition"}, {"measurement": "constitutive or IGF-1 induced phosphorylation of IGF-1R", "setting": "[2]; three melanoma cell lines", "result": "no significant effect"}, {"measurement": "constitutive phosphorylation of FAK", "setting": "[2]; three melanoma cell lines", "result": "no significant effect"}, {"measurement": "melanoma tumor regression", "setting": "melanoma tumor", "result": "caused melanoma tumor regression"}]}
